Results taken from patent publication US20120009277A1, “METHOD FOR SELECTION OF NOVEL ANTI-CANCER HERBS USING CHEMINFORMATIC TOOLS” (priority 2010, published 2012).

Columns and labels:
Assay type in all cases: cell-based
[1] = test system: A2780/cp (human ovarian carcinoma, resistant to cisplatin); experiment: MTT cytotoxicity assay on A2780/cp cells, single agents and cisplatin combinations; conditions: cisplatin alone, 24 hr
Description: (§1) Anticancer drug resistant cancerous cell lines; A2780/cp (human ovarian carcinoma, resistant to cisplatin) NCBI C454, ACHN (human renal adenocarcinoma) NCBI C206, and normal cell line HF2 (human fetal fibroblast) NCBI C336 herein used as a cell negative control are obtained from National Cell Bank of Iran, Pasture Institute of Iran (Tehran). These cells are maintained in RPMI 1640 medium supplemented with 10% FCS in a humidified incubator (37° C. and 5% CO2).
(§2) Cells are cultured in RPMI-1640 medium supplemented with 10% heat inactivated FCS, 2 mM glutamine, penicillin ([…]) and streptomycin (100 μg/ml) at 37° C. in an incubator containing 5% CO2.
(§3) Harvested cells with trypsin (0.25%) are counted by Neubauer slide and then are seeded into 96-well plates (104 cell/well). […] The insoluble formazan produced is dissolved in solution containing 100 μl DMSO (Dimethyl sulfoxide) and Optical Density (absorbance) is read against blank reagent with Multiwell scanning spectrophotometer (ELISA reader, Organon Tekninka, the Netherlands) at a wavelength of 545 nm. The percentage of cytotoxicity is calculated according to following equations: […]

[2] = test system: ACHN (human renal adenocarcinoma); experiment: MTT cytotoxicity assay on ACHN cells, single agents and doxorubicin combinations; conditions: doxorubicin alone, 24 hr
Description: as §1, §2, §3

[3] = test system: HF2 (human fetal fibroblast); experiment: MTT cytotoxicity assay on HF2 normal cells, single agents and doxorubicin combinations; conditions: doxorubicin alone, 24 hr
Description: as §1, §2, §3

SMILES | IC50 [1] [µM] | IC50 [2] [µM] | IC50 [3] [µM]
N.N.[Cl][Pt][Cl] [Cisplatin] | 42.5 | – | –
COc1cccc2c1C(=O)c1c(O)c3c(c(O)c1C2=O)C[C@@](O)(C(=O)CO)C[C@@H]3O[C@H]1C[C@H](N)[C@H](O)[C@H](C)O1 [Doxorubicin] | – | 3.92 | 1.31
